Data on twelve compounds can be found in US7734426B2 (priority 1999, dated 2010).

The subject of test [1] is CA1 region of hippocampal slices. The following applies: cited from earlier work.
A further test concerns NG-108-15 Cells. The test is classed as cell-based.
In test [2] the test system is CA1 pyramidal cells in hippocampal slices. The following applies: cited from earlier work.
In a further test the test system is hippocampal interneurons. The settings on record: cited from earlier work.
The next test deals with CNS stem cells. The settings on record: cited from earlier work.

“Also recorded” adds a separate entry of the source. Where no end group is shown, it is not given here.

Consider `O=CC[C@@H](O)[C@H](O)[C@H](O)CO` [2-DG, 2-deoxy-D-glucose], for which, in test [1], the “effect on synaptic transmission” value was “reversibly suppresses synaptic transmission”.

Regarding `N=C(N)NC(=O)c1nc(Cl)c(N)nc1N` [amiloride], in the test on NG-108-15 Cells, the Effect result is recorded as “L-type Ca^2+ channel”, the “Onset Time” value is <60 s and the inhibit repetitive firing result was “amiloride*”.

With `C=C(C=O)C[C@@H]1C[C@H](O)[C@]2(C)O[C@@H]3C[C@@H]4O[C@@H]5C[C@]6(C)O[C@]7(C)CC[C@@H]8O[C@@H]9C[C@]%10(C)O[C@@H]%11C(C)=CC(=O)O[C@H]%11C[C@H]%10O[C@H]9C[C@@H](C)[C@H]8O[C@H]7C[C@H]6O[C@H]5C/C=C\[C@H]4O[C@H]3C[C@H]2O1` [brevetoxin], in the test with NG-108-15 Cells, the Effect entry is given as “Na^+ channel”, the “Onset Time” value was <60 s and the inhibit repetitive firing result is “brevetoxin*”.

As for `C[N+](C)(C)CCOC(N)=O` [carbachol], in the test on NG-108-15 Cells, the Effect result is on record as “muscarinic receptor”, the “Onset Time” value was <60 s and the inhibit repetitive firing entry is given as “carbachol*”. Also, in test [2], the “changes in the action potential” value is listed as “several reversible changes in the action potential”.

Consider `COC(=O)C1=C(C)NC(C)=C(C(=O)OC)C1c1ccccc1[N+](=O)[O-]` [nifedipine], for which, in the test with NG-108-15 Cells, the inhibit repetitive firing result is “nifedipine*”.

Regarding `C[C@@H]1O[C@@H](O[C@H]2C[C@@H](O)[C@]3(CO)[C@H]4[C@H](O)C[C@]5(C)[C@@H](C6=CC(=O)OC6)CC[C@]5(O)[C@@H]4CC[C@]3(O)C2)[C@H](O)[C@H](O)[C@H]1O` [ouabain], in the test on NG-108-15 Cells, the Effect result is “Na^+—Ca^2+ pump; also recorded: inhibition”, the “Onset Time” value was <60 s and the inhibit repetitive firing result is “ouabain*”.

`C=C[C@H]1C[N@@]2CC[C@H]1C[C@H]2[C@H](O)c1ccnc2ccc(OC)cc12` [quinine]: in the test with NG-108-15 Cells, the Effect entry is listed as “non-specific K^+ channel”, the “Onset Time” value is <60 s and the inhibit repetitive firing result is recorded as “quinine*”.

`NC1=N[C@H](O)[C@H]2[C@H]3O[C@]4(O)O[C@@H]([C@@H](O)[C@@]2(N1)[C@@H]4O)[C@]3(O)CO` [tetrodotoxin]: in the test on NG-108-15 Cells, the Effect entry was “Na^+ channel”, the “Onset Time” value was <60 s, the “effect on the AP” value was “affected the AP” and the inhibit repetitive firing entry is given as “tetrodotoxin*”.

In the case of `COc1ccc(CCN(C)CCCC(C#N)(c2ccc(OC)c(OC)c2)C(C)C)cc1OC` (stereo not drawn) [verapamil], in the test on NG-108-15 Cells, the Effect entry is on record as “L-type Ca^2+ channel”, the “Onset Time” value was <60 s and the inhibit repetitive firing entry is “verapamil*”.

Turning to “CCK-8S (DYMGWMDF; not fully specified; UniProt P06307 96-103, looked up)”, the “effect on action potential frequency / currents” value with hippocampal interneurons was “increased action potential frequency or generated inward currents”.

As to Charybdotoxin, in the test with NG-108-15 Cells, the Effect result is listed as “Kca “BK”-type channel”, the “Onset Time” value was <60 s and the inhibit repetitive firing result is reported as “Charybdotoxin*”.

For platelet-derived growth factor [PDGF], in the test on CNS stem cells, the “neuronal differentiation, % of the cells” value is 90%.
